Source: ChEMBL document CHEMBL1201862, “PubChem BioAssay data set” (2004)
Blank lines part the entries; values can stand above or below the compound they belong to. Calls of active or inactive are those of the source.

Key:
[1] = toxicity toward immortalized ovarian surface epithelium – cell-based, plate reader, dry powder samples, cytotoxicity control for PAX8 inhibitor project, dose response (AID 743045); assay type: functional
[2] = OVCAR4 cell viability loss – plate reader, dry powder, SA11, cytotoxicity control for PAX8 inhibitor project, dose response (AID 743150); assay type: functional, cell-based; details: OVCAR-4
[3] = COV362 cell viability loss – plate reader, dry powder, SA12, cytotoxicity control for PAX8 inhibitor project, dose response (AID 743144); assay type: functional, cell-based
[4] = IGROV1 cell killing – plate reader, dry powder samples, PAX8 inhibitor project, dose response (AID 743043); assay type: functional, cell-based; details: IGROV-1
[5] = OVCAR-3 cell viability loss – plate reader, dry powder samples, PAX8 inhibitor project, dose response (AID 743044); assay type: functional, cell-based
[6] = inhibitors acting on PAX2 in cells – cell-based, plate reader, dry powder samples, selectivity assay for PAX8 inhibitor project, dose response (AID 743048); assay type: functional;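 further: HEK293 cells carrying a WT1 promoter luciferase reporter driven by expressed Pax2; potency is for inhibition of Pax2 driven reporter signal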
[7] = PAX8-dependent cell viability loss – plate reader, dry powder, dose response (AID 743049); assay type: functional, cell-based
[8] = COV434 cell viability loss – plate reader, dry powder, SA7, cytotoxicity control for PAX8 inhibitor project, dose response (AID 743145); assay type: functional, cell-based
[9] = PAX5 cellular inhibition readout – cell-based, plate reader, dry powder samples, selectivity assay for PAX8 inhibitor project, dose response (AID 743047); assay type: functional;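 further: HEK293 cells carrying a Pax5 driven CD19 promoter luciferase reporter; potency of inhibitors that lower reporter luminescence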
[10] = OV-90 cell viability loss – plate reader, dry powder, SA8, PAX8 inhibitor project, dose response (AID 743149); assay type: functional, cell-based
[11] = cells
[12] = cells; details: HEK293
[13] = biological target: Intestinal-type alkaline phosphatase (Homo sapiens, UniProt P09923); assay: human intestinal alkaline phosphatase activators, dose response, biochemical, luminescence, uHTS hits (AID 463120); assay type: functional
[14] = viability loss in HepG2 hepatoma cells – cell-based, ATP luminescence, cherry-pick, activator set 2, cytotoxicity control, dose response (AID 1053143); assay type: functional
[15] = blockers of FN fibrillogenesis by fibroblasts – AH1F cells, Alexa488-FN fluorescence, cherry-picks, dose response (AID 1035475); assay type: functional, cell-based
[16] = viability loss in HepG2 hepatoma cells – cell-based, cherry-picks, set 5, cytotoxicity control, dose response (AID 1053118); assay type: functional
[17] = viability loss in HEK293 kidney cells – cell-based, cherry-picks, set 5, cytotoxicity control, dose response (AID 1053117); assay type: functional
[18] = biological target: Delta-type opioid receptor (Homo sapiens, UniProt P41143); assay: Late-stage results from the probe development effort to identify antagonists of OPRK1: fluorescence-based cell-based dose response OPRD1 counterscreen.; assay type: functional
[19] = biological target: Kappa-type opioid receptor (Homo sapiens, UniProt P41145); assay: kappa opioid receptor antagonism potency – cell-based, fluorescence, dose response, late-stage follow-up (AID 652032); assay type: functional
[20] = biological target: Mu-type opioid receptor (Homo sapiens, UniProt P35372); assay: Late-stage results from the probe development effort to identify antagonists of OPRK1: luminescence-based cell-based dose response OPRM1 counterscreen.; assay type: functional
[21] = P. falciparum Dd2 growth inhibitors, dose response, SYBR Green, cherry-picked samples (AID 1159567); assay type: functional, cell-based
[22] = HepG2 cell viability loss – cherry-picked samples, cytotoxicity control, dose response (AID 1053183); assay type: functional, cell-based
[23] = A549 cell viability loss – cherry-picked samples, cytotoxicity control, dose response (AID 1053184); assay type: functional, cell-based
[24] = HEK293 cell viability loss – cherry-picked samples, cytotoxicity control, dose response (AID 1053185); assay type: functional, cell-based
[25] = toxicity to human hepatoma HepG2 cells – cell-based, cherry-picked samples, cytotoxicity control, dose response (AID 1159577); assay type: functional
[26] = biological target: Endoplasmic reticulum aminopeptidase 1 (Homo sapiens, UniProt Q9NZ08); assay: inhibition of human ERAP1 enzyme activity – biochemical, cherry-pick, set 2, plate reader, dose response (AID 743314)
[27] = MITF: Counter assay: A375 proliferation Measured in Cell-Based System Using Plate Reader - 2084-03_Inhibitor_Dose_DryPowder_Activity_Set8.; assay type: functional; details: A-375
[28] = MITF Orthogonal Assay: SK-MEL-5 CTG Assay Measured in Cell-Based System Using Plate Reader - 2084-02_Inhibitor_Dose_DryPowder_Activity_Set7.; assay type: functional
[29] = inhibitors of TRPM1-promoter reporter in SK-MEL-5 – cell-based, luciferase, dry powder, set 8, MITF inhibitor project, dose response (AID 624430); assay type: functional

Intestinal-type alkaline phosphatase, sequence (P09923 whole entry): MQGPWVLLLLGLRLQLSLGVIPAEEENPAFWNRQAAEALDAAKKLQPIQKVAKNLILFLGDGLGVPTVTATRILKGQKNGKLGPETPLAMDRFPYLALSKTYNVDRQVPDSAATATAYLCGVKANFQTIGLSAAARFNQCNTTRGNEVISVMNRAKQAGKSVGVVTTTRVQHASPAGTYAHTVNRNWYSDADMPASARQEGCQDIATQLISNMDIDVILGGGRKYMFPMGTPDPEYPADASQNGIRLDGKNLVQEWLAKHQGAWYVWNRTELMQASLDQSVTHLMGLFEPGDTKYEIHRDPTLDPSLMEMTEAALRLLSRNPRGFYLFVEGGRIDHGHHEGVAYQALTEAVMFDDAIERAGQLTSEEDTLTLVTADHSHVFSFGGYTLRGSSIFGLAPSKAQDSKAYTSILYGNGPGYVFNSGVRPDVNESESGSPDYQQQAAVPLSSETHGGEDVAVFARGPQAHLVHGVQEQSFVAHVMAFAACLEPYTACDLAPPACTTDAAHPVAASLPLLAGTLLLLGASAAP
Mu-type opioid receptor, sequence (P35372 whole entry): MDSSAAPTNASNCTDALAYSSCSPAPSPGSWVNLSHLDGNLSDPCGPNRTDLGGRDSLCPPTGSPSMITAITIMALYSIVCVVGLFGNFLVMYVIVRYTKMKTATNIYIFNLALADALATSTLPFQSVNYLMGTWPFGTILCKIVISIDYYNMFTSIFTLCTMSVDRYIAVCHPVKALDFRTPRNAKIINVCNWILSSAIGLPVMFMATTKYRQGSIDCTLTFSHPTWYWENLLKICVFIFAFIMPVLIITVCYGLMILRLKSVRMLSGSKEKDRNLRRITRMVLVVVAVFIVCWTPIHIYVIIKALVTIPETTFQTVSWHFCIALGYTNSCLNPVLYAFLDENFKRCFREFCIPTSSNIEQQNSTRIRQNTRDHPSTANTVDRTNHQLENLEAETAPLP
Endoplasmic reticulum aminopeptidase 1, sequence (Q9NZ08 whole entry): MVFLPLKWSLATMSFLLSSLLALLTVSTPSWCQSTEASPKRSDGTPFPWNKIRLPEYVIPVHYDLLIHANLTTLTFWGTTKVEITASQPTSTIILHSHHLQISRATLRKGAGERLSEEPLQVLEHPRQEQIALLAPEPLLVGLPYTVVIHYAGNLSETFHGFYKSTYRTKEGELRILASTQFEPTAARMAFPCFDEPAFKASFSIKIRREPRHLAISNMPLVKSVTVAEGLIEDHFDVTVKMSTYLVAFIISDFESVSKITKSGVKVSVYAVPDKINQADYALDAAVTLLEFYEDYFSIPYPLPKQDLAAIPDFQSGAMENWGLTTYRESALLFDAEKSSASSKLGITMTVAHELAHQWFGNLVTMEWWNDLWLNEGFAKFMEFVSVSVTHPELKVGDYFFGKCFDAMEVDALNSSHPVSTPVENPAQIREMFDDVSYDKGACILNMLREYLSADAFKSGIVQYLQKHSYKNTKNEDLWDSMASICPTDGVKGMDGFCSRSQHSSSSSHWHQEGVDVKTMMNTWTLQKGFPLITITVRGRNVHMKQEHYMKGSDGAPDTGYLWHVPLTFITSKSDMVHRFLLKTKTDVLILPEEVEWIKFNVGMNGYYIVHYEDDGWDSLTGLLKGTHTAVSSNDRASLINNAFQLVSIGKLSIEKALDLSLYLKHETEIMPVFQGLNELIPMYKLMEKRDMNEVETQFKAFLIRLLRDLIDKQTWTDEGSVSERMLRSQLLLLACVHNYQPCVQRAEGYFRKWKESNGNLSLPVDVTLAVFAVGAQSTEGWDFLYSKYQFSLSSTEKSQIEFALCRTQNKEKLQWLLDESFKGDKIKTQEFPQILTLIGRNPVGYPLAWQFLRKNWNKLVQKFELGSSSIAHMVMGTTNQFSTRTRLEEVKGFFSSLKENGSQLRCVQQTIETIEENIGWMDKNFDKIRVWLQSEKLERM
Kappa-type opioid receptor, sequence (P41145 whole entry): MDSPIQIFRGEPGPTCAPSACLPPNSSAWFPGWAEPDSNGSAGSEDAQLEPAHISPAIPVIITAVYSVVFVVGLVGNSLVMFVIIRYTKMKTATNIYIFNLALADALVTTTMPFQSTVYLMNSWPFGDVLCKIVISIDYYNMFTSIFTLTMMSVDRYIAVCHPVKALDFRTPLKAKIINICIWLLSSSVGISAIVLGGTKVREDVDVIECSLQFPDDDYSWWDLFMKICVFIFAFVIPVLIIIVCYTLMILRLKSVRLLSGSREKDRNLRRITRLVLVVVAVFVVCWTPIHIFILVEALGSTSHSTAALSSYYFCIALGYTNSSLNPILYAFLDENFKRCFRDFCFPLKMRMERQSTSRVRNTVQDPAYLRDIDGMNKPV
Delta-type opioid receptor, sequence (P41143 whole entry): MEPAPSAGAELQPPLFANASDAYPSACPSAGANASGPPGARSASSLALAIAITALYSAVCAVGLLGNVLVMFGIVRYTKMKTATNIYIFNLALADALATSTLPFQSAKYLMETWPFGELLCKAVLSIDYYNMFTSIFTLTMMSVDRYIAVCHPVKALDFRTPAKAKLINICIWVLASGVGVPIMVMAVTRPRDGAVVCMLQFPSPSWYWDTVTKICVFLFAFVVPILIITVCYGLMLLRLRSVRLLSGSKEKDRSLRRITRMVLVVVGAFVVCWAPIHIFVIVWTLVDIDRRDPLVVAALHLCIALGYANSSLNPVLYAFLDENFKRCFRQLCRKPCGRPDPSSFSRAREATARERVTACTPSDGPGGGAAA

SMILES: O=C(CCCN1C(=O)/C(=C\c2ccccc2OC(F)F)SC1=S)Nc1cccnc1
AC50 [1]: 46.9 µM (active)
AC50 [2]: 14.8 µM (active)
AC50 [3]: 18.1 µM (active)
AC50 [4]: 9.15 µM (active)
AC50 [5]: 21.6 µM (active)
AC50 [6]: > 100 µM (inactive)
AC50 [7]: 7.44 µM (active)
AC50 [8]: 34.5 µM (active)
AC50 [9]: 81 µM (active)
AC50 [10]: 46.2 µM (active)

SMILES: COCCn1c(=N)c(S(=O)(=O)c2ccc(F)cc2)cc2c(=O)n3ccccc3nc21
AC50 [11]: 1.5 µM (active)
AC50 [12]: > 52 µM (inactive)

SMILES: c1ccc(Nc2ccnc(Nc3ccccc3)n2)cc1
EC50 [13]: > 100 µM (inactive)
AC50 [14]: 26 µM (active)

SMILES: CO[C@H]1CN(C)C(=O)c2ccc(NC(=O)Nc3ccc(Cl)c(Cl)c3)cc2OC[C@H](C)NC[C@@H]1C
AC50 [15]: 53.6 µM (active)
AC50 [16]: 11.2 µM (active)
AC50 [17]: 18.4 µM (active)

IC50 [18]: > 50 µM (inactive)
IC50 [19]: 0.579 µM (active)
IC50 [20]: 19 µM (inactive)
SMILES: COC(=O)c1cc(Br)cnc1N1CCC(N[C@@H]2CCCC[C@@H]2O)CC1

SMILES: C/C=C/c1ccc([C@@H]2[C@@H]3CN(C(=O)Nc4ccc(C(F)(F)F)cc4)C[C@H]2N3)cc1
AC50 [21]: 6.85 µM (active)
AC50 [22]: 16.7 µM (active)
AC50 [23]: 18.1 µM (active)
AC50 [24]: 16.6 µM (active)
AC50 [25]: 10.3 µM (active)

AC50 [26]: 10.8 µM (active)
SMILES: Cc1c(C)c2ccc(O)c(CN3CCN(C)CC3)c2oc1=O

SMILES: CN1CCN(C2=C(Nc3cccc(Cl)c3)C(=O)c3ccccc3C2=O)CC1
AC50 [27]: 30.7 µM (active)
AC50 [28]: 11.1 µM (active)
AC50 [29]: 5.11 µM (active)
